Test results published in patent US12721845B2, “Therapeutic or prophylactic agent for cachexia accompanied by ghrelin resistance” (Toray Industries, Inc., priority 2021, dated 2026).
Where a name gives a salt, the structure may show the parent alone.

Legend:
[1] = test system: tumor-bearing mouse model (non-small cell lung cancer model accompanied by ghrelin resistance); experiment: Example 1: food intake and body weight in tumor-bearing mouse model (A549 cells transplanted into nude mice); type: in vivo; details: for body weight after 5-day administration / cumulative food intake in the period of administration: vs distilled water group
Method: Using tumor-bearing model animals where adenocarcinomic human alveolar basal epithelial cells, A549 cells, were transplanted into nude mice, examination was performed about drug efficacy of Compound 1 on the food intake and the body weight.
(§1) Subculture of A549 cells was performed using a 10% FBS-containing RPMI1640 culture medium. In evaluation of drug efficacy, 6-week-old female BALB/C slc/nu/nu mice (Japan SLC, Inc.) were purchased, and were used after habituated for one week. Tumor-bearing model animals were prepared as follows. Specifically, 2.5×10^7 cells of A549 cells were transplanted to the right abdominal region of each mouse by subdermal administration. On Day 43 from the cell transplantation, the mice were divided into groups to have an equal averaged tumor volume.
The effects of a variety of compounds on food intake and body weight were examined as follows. Specifically, for 5 days from Day 44 to Day 48 from the cell transplantation, the compounds were orally administered daily, and the food intake and the body weight were measured at the same time. The doses of Compound 1 were 0.25 mg/kg (6 animals), 0.5 mg/kg (6 animals), and 1 mg/kg (6 animals). To verify that the model animals are in a ghrelin resistant state, anamorelin hydrochloride (MedChemExpress) was used at 30 mg/kg (6 animals). The food intake was calculated by subtracting the weight of feed on the previous day of measurement from the weight of feed on the day of measurement.
In FIG. 1, the ordinate represents the cumulative food intake in the period of administration of the compounds (from the start of administration to the day next to the final day of administration). In FIG. 2, the ordinate represents the percentage of changes in body weight on Day 6 from the start of administration of the compounds (the day next to the final day of administration) (after 5-day administration) (relative to the body weight measured immediately before the first administration of the compound designated as 100%). In the abscissas of FIGS. 1 and 2, “Distilled water” represents distilled water-treated group, “Compound 1 0.25” represents Compound 1-treated group at 0.25 mg/kg, “Compound 1 0.5” represents Compound 1-treated group at 0.5 mg/kg, “Compound 1 1” represents Compound 1-treated group at 1 mg/kg, and “Anamorelin” represents anamorelin hydrochloride-treated group at 30 mg/kg. In FIGS. 1 and 2, the mark “*” represents a statistical significance (*: P<0.05) in comparison with distilled water-treated group (Dunnett's multiple test).

[2] = test system: tumor-bearing mouse model (non-small cell lung cancer model accompanied by ghrelin resistance); experiment: Example 2: food intake and body weight in tumor-bearing mouse model (A549 cells transplanted into nude mice); type: in vivo
Method: Using tumor-bearing model animals where adenocarcinoma human alveolar basal epithelial cells, A549 cells, were transplanted into nude mice, examination was performed about drug efficacy of Compounds 1 and 2 on the food intake and the body weight.
as §1, with “7-week old” for “6-week-old”
The effects of a variety of compounds on food intake and body weight were examined as follows. Specifically, for 5 days from Day 44 to Day 48 from the cell plantation, Compound 2 was intraperitoneally administered daily, Compound 1 and anamorelin hydrochloride were orally administered daily, and the amount of feed and the body weight were measured at the same time. Compound 2 was used at 1 mg/kg (9 animals), and Compound 1 was used at 0.25 mg/kg (9 animals), which is the lowest dose to exert drug efficacy. To verify that the model animals are in a ghrelin resistant state, anamorelin hydrochloride was used at 30 mg/kg (9 animals) herein. The food intake was calculated by subtracting the weight of feed on the previous day of measurement from the weight of feed on the day of measurement.
In FIG. 3, the ordinate represents the cumulative food intake in the period of administration of the compounds (from the start of administration to the day next to the final day of administration). In FIG. 4, the ordinate represents the percentage of changes in body weight on Day 6 from the start of administration of the compounds (the day next to the final day of administration) (after 5-day administration) (relative to the body weight measured immediately before the first administration of the compound designated as 100%). In the abscissas of FIGS. 3 and 4, “Normal saline” represents a group treated intraperitoneally with normal saline, “Compound 2” represents a group treated intraperitoneally with Compound 2 at 1 mg/kg, “Compound 1” represents a group treated orally with Compound 1 at 0.25 mg/kg, and “Aanamorelin” represents a group treated orally with anamorelin hydrochloride at 30 mg/kg. In FIGS. 3 and 4, the mark “*” represents a statistical significance (*: P<0.05) compared to the group treated with normal saline (Dunnett's multiple test).

[3] = test system: model of non-small cell lung cancer to which A549 cells have been transplanted subcutaneously; details: cited from earlier work
normal animal = details: anamorelin hydrochloride 30 mg/kg; cited from earlier work
[4] = Compound 1 0.25 mg/kg oral daily for 5 days, compared with Compound 2 1 mg/kg i.p.
[5] = Compound 2 1 mg/kg intraperitoneal daily for 5 days, vs normal saline group, Dunnett P<0.05
[6] = anamorelin hydrochloride 30 mg/kg oral daily for 5 days

SMILES: CN(C(=O)/C=C/c1ccoc1)[C@@H]1CC[C@@]2(O)[C@H]3Cc4ccc(O)c5c4[C@@]2(CCN3CC2CC2)[C@H]1O5 [Compound 1, (−)-17-(cyclopropylmethyl)-3,14β-dihydroxy-4,5α-epoxy-6β-[N-methyl-trans-3-(3-furyl)acrylamide]morphinan hydrochloride]
- body weight after 5-day administration ([1]; Compound 1 0.25 mg/kg oral daily for 5 days): tendency of an increase in body weight
- body weight after 5-day administration ([1]; Compound 1 0.5 mg/kg oral daily for 5 days, Dunnett P<0.05): statistically significant increasing effect in body weight
- body weight after 5-day administration ([1]; Compound 1 1 mg/kg oral daily for 5 days, Dunnett P<0.05): statistically significant increasing effect in body weight
- cumulative food intake in the period of administration ([1]; Compound 1 0.25, 0.5 and 1 mg/kg oral daily for 5 days (Day 44-48 from transplantation), Dunnett P<0.05): statistically significant increasing effect in food intake
- lowest dose to exert drug efficacy ([1]; oral, tumor-bearing mouse model): 0.25 mg/kg
- body weight after 5-day administration [2, 4]: increasing effect in body weight higher than those exhibited by Compound 2
- cumulative food intake in the period of administration [2, 4]: increasing effect in food intake and the increasing effect in body weight higher than those exhibited by Compound 2

SMILES: CC(C)C[C@@H](NC(=O)[C@@H](Cc1ccccc1)NC(=O)[C@H](N)Cc1ccccc1)C(=O)N[C@H](CCCCN)C(=O)N1CCC(N)(C(=O)O)CC1 [Compound 2, 4-amino-1-[(2R)-6-amino-2-[(2R)-2-[(2R)-2-[(2R)-2-amino-3-phenylpropanamide]-3-phenylpropanamide]-4-methylpentanamide]hexanoyl]piperidine-4-carboxylic acid]
- body weight after 5-day administration [2, 5]: statistically significant increasing effect in body weight
- cumulative food intake in the period of administration [2, 5]: statistically significant increasing effect in food intake

SMILES: CN(C)N(C)C(=O)[C@@]1(Cc2ccccc2)CCCN(C(=O)[C@@H](Cc2c[nH]c3ccccc23)NC(=O)C(C)(C)N)C1 [anamorelin hydrochloride, reference compound]
- body weight after 5-day administration [1, 6]: any statistically significant increasing effect in food intake or increasing effect in body weight was not observed
- cumulative food intake in the period of administration [1, 6]: any statistically significant increasing effect in food intake or increasing effect in body weight was not observed
- therapeutic effects on cachexia ([2]; anamorelin hydrochloride 30 mg/kg oral, administered from Day 44 after cell transplantation (Examples 1 and 2)): no therapeutic effects were observed on cachexia
- body weight ([3]; anamorelin hydrochloride 30 mg/kg, A549 cells transplanted subcutaneously in the abdominal region): increase in body weight
- therapeutic effects on cachexia ([3]; anamorelin hydrochloride administered on Day 23 from cell transplantation): achieved therapeutic effects on cachexia
- body weight (normal animal): increase in body weight
